Reference: ChEMBL document CHEMBL6083203, “Discovery and optimisation of pyrazolo[1,5-a]pyrimidines as aryl hydrocarbon receptor antagonists” (RSC Med Chem, 2024)

The compounds below were run against T1, Aryl hydrocarbon receptor (Mus musculus, UniProt P30561) (assay: Antagonist activity at AhR receptor in TCDD-stimulated mouse CD34-positive cell assessed as decrease in CYP1B1 mRNA expression). Settings: not given.
T1 sequence (P30561 whole entry): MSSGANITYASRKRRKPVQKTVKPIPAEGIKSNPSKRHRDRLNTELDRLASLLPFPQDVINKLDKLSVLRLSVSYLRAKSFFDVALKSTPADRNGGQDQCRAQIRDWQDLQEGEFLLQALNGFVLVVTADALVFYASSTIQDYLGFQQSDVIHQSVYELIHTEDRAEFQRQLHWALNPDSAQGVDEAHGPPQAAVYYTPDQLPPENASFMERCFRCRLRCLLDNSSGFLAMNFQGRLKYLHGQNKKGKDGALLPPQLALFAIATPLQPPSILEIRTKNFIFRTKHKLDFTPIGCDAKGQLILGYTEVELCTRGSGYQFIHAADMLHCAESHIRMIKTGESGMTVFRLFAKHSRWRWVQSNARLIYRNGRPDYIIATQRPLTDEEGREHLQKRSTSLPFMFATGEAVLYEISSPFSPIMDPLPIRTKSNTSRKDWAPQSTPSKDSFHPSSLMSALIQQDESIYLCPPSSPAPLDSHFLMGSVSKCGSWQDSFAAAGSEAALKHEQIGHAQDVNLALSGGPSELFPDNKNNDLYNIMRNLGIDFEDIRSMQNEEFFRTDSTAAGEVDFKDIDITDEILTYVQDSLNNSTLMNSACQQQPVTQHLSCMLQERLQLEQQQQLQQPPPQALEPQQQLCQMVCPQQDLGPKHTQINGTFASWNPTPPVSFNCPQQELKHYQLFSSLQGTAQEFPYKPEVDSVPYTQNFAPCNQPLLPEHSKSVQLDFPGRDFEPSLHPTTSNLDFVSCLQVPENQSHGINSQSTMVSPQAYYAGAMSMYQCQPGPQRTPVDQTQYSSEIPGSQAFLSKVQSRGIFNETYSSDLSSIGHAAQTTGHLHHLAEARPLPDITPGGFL

IC50 | Compound
127 nM | CC(C)n1cnc2c(NCCc3ccc(O)cc3)nc(-c3csc4ccccc34)nc21

The compounds below were run against T2, Aryl hydrocarbon receptor (Homo sapiens, UniProt P35869). Settings: Huh-7, human, 20 h, read-out: Activity.
T2 sequence (P35869 whole entry): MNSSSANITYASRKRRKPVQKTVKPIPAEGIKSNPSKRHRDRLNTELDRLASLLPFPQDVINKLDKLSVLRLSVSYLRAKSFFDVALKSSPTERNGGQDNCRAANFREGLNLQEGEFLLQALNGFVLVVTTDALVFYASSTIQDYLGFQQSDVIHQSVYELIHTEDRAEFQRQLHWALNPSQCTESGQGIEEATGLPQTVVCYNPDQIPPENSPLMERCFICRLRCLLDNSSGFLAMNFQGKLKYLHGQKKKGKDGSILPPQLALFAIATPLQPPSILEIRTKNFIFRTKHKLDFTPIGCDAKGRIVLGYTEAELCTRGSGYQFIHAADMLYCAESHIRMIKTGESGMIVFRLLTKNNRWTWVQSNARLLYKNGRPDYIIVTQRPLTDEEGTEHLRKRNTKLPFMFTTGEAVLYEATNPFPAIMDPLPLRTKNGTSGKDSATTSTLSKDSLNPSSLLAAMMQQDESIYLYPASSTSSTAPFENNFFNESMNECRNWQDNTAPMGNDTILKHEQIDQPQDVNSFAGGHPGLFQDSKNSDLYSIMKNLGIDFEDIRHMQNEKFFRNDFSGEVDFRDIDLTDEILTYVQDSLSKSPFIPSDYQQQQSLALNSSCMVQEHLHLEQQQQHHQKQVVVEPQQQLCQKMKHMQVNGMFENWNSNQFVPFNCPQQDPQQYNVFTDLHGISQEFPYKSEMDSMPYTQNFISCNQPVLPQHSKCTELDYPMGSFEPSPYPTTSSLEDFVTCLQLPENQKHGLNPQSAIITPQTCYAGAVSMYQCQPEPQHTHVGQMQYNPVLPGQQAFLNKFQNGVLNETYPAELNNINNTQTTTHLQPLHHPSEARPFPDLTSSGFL
Description: Antagonist activity at AHR receptor in human Huh-7 cells transfected with CYP1A1 regulated luciferase reporter gene assessed as inhibition of receptor activation at 25 uM incubated for 20 hrs by dual luciferase assay relative to control

inhibition at 25 µM | Compound
28% | NC(=O)C1CN(C(=O)c2cc(-c3ccc(Cl)cc3)nn2-c2ccccc2)c2ccccc2O1 (configuration not stated)
1.4% | C=CCn1c(SC(C)C(=O)NC(N)=O)nnc1-c1cc2c(s1)CCC(C(C)(C)C)C2 (configuration not stated)

The compounds below were run against T2, Aryl hydrocarbon receptor. Settings: not given.

Compound | IC50
CC(C)(C)c1cccc(-c2cnn3c(NCCOCCO)cc(-c4ccccc4)nc23)c1 | 29500 nM
OCCOCCNc1cc(-c2ccccc2)nc2c(-c3ccccc3OC(F)(F)F)cnn12 | 396 nM
CS(=O)(=O)Nc1ccccc1-c1cnn2c(NCCOCCO)cc(-c3ccccc3)nc12 | 654 nM

Other lines, results leading:

IC50 | Compound
121 nM | c1ccc(-c2cc(Nc3cnc[nH]3)n3ncc(-c4ccccc4)c3n2)cc1
320 nM | COc1ccccc1-c1cnn2c(NCCOCCO)cc(-c3ccccc3)nc12
189 nM | Cc1ccc(-c2cc(NCCOCCO)n3ncc(-c4ccccc4)c3n2)cc1
359 nM | COC(=O)c1ccccc1-c1cnn2c(NCCOCCO)cc(-c3ccccc3)nc12

Molecular target: T2, Aryl hydrocarbon receptor
Settings: Huh-7, human, 20 h, read-out: Activity
Remark: another data set of the same source
Description: Antagonist activity at AHR receptor in human Huh-7 cells transfected with CYP1A1 regulated luciferase reporter gene assessed as inhibition of TCDD-induced receptor activation at 25 uM incubated for 20 hrs by dual luciferase assay relative to control

inhibition at 25 µM | Compound
23.6% | NC(=O)C1CN(C(=O)c2cc(-c3ccc(Cl)cc3)nn2-c2ccccc2)c2ccccc2O1 (configuration not stated)
21% | C=CCn1c(SC(C)C(=O)NC(N)=O)nnc1-c1cc2c(s1)CCC(C(C)(C)C)C2 (configuration not stated)
